Patent US20040122209A1, “Products for regulating the degradation of collagen and methods for identifying same” (Shriners Hospital For Children, priority 2002, published 2004)

Legend:
Assay type in all cases: cell-based
[1] = system: adult bovine articular chondrocytes; assay: Collagenase-cleaved type II collagen (COL2-3/4C ELISA) in bovine chondrocyte pellet culture; settings: preliminary studies; denatured 50° C. for 20 min; data not shown
Method: Adult bovine and human articular cartilage was obtained from metacarpophalangeal joints shortly (within 3 hours) after slaughter and from autopsy within 18 hr of death, respectively. Chondroctyes were released from freshly dissected articular cartilage specimens by sequential enzymatic digestion at 37° C. with trypsin and bacterial collagenase as previously described (Aimes, R. T., 1995). […]
The cell pellets and cartilage explant cultured for various times were digested for the extraction of collagenase-generated neoepitope COL2-3/4Cshort (Billinghurst, R. C. et al., (1997) supra) and denatured type II collagen epitope COL2-3/4m and total type II collagen (Hollander, A. P. et al. (1994a) supra), as previously described: Briefly, the harvested pellets were incubated overnight with 1.0 mg/ml α-chymotrypsin at 37° C. to cleave and solubilize denatured collagen leaving the above neoepitope and epitope intact. […] The COL2-3/4Cshort epitope (hereafter referred to as COL2-3/4Cshort) generated by cleavage of type II collagen by collagenase (Billinghurst, R. C. et al. (1997) supra) and intrachain epitope (COL2-3/4m) exposed in denatured type II collagen (Hollander, A. P. et al. (1994a) supra) were measured in α-chymotrypsin extracts by immunoassay. […] The release of the COL2-3/4C epitope into media was also measured by immunoassay. […]

[2] = system: bovine articular cartilage explant; assay: Collagenase-cleaved type II collagen (COL2-3/4C) in bovine articular cartilage explant culture; settings: 0.1 and 1 μM from day 0; day 12; one way ANOVA
Method: The cartilages were prepared as previously described (Dahlberg, L. et al. (2000) supra. In brief, the cartilage samples were washed three times with basal culture medium containing Dulbecco's modified Eagle's medium (DMEM; Gibco BRL, Life Technologies, Grand Island, N.Y.) with 20 mM HEAPS buffer (pH 7.4) (Gibco BRL), 45 mM NaHCO3, 100 units/ml penicillin, 100 μg/ml streptomycin and 150 μg/ml gentamycin sulphate (Medium A). Full-depth cartilage slices from a single area, around 20 mm×20 mm were cut vertical to the articular surface and then into cubes of approximately 2 mm×2 mm (5-7 cubes were randomly obtained and wet weights about 50-70 mg/well determined).
The cartilage was assigned to 48 well plate (ca 40 mg/well) and kept in Medium A supplemented with 50 μg/ml ascorbic acid, 0.1 mg/bovine serum albumin, 50 μg/ml insulin, 5.0 μg/ml and 5.0 μg/ml sodium DMEM alone at 37° C. in 95% air/5% CO2. The cartilage was precultured for 2 days and medium was changed at day 0. Thereafter medium (as described in pellet cultures) was replaced every four days. Various CNBr fragments and/or synthetic peptides were freshly added from day 0 at each medium change. Thereafter, cartilage explants and conditioned media were harvested and stored at −20° C.
The cell pellets and cartilage explant cultured for various times were digested for the extraction of collagenase-generated neoepitope COL2-3/4Cshort (Billinghurst, R. C. et al., (1997) supra) and denatured type II collagen epitope COL2-3/4m and total type II collagen (Hollander, A. P. et al. (1994a) supra), as previously described: Briefly, the harvested pellets were incubated overnight with 1.0 mg/ml α-chymotrypsin at 37° C. to cleave and solubilize denatured collagen leaving the above neoepitope and epitope intact. After inhibition of α-chymotrypsin activity with N-tosyl-L-phenelalanine-chloromethyl ketone (Sigma), the samples were centrifuged and the supernatants were removed and boiled for 10 min. The COL2-3/4Cshort epitope (hereafter referred to as COL2-3/4Cshort) generated by cleavage of type II collagen by collagenase (Billinghurst, R. C. et al. (1997) supra) and intrachain epitope (COL2-3/4m) exposed in denatured type II collagen (Hollander, A. P. et al. (1994a) supra) were measured in α-chymotrypsin extracts by immunoassay. The COL2-3/4Cshort epitope is detected in an ELISA assay using a rabbit antibody to the carboxyterminal cleavage neoepitope on the TCA piece generated by primary collagenase cleavage of type II collagen. The release of the COL2-3/4C epitope into media was also measured by immunoassay. Total contents in tissue/cells and media was recorded for COL2-3/^4Cshort epitope. The COL2-3/4m epitope was recorded in cells and tissue where it was concentrated. The remaining residues of pellets and explants were digested overnight with 1.0 mg/ml proteinase K at 56° C. to extract the remaining intact type II collagen and then boiled for 10 min to denature the enzyme. Total type II collagen content in the pellets and explant was determined from the collective amount of COL2-3/4m in both the α-chymotrypsin and proteinase K digests.

[3] = system: bovine articular cartilage explant; assay: Proteoglycan (GAG) content and release in bovine explant culture; settings: 0.1 and 1 μM from day 0
Method: The cartilages were prepared as previously described (Dahlberg, L. et al. (2000) supra. In brief, the cartilage samples were washed three times with basal culture medium containing Dulbecco's modified Eagle's medium (DMEM; Gibco BRL, Life Technologies, Grand Island, N.Y.) with 20 mM HEAPS buffer (pH 7.4) (Gibco BRL), 45 mM NaHCO3, 100 units/ml penicillin, 100 μg/ml streptomycin and 150 μg/ml gentamycin sulphate (Medium A). Full-depth cartilage slices from a single area, around 20 mm×20 mm were cut vertical to the articular surface and then into cubes of approximately 2 mm×2 mm (5-7 cubes were randomly obtained and wet weights about 50-70 mg/well determined). The cartilage was assigned to 48 well plate (ca 40 mg/well) and kept in Medium A supplemented with 50 μg/ml ascorbic acid, 0.1 mg/bovine serum albumin, 50 μg/ml insulin, 5.0 μg/ml and 5.0 μg/ml sodium DMEM alone at 37° C. in 95% air/5% CO2. The cartilage was precultured for 2 days and medium was changed at day 0. Thereafter medium (as described in pellet cultures) was replaced every four days. Various CNBr fragments and/or synthetic peptides were freshly added from day 0 at each medium change. Thereafter, cartilage explants and conditioned media were harvested and stored at −20° C. In order to show the specificity of the peptide fragments of one embodiment on degradation of type II collagen as compared with proteoglycan, primarily aggrecan, sulphated glycosaminoglycan (GAG) content was determined in both the α-chymotrypsin and proteinase K digests for total proteoglycan (predominantly aggrecan) content in cell pellets, cartilage explants and also in conditioned media. Measurement of release of proteoglycan into media was tested using dimethylene blue dye binding as previously described (Dahlberg, L. et al. (2000) supra).

difference between pellet cultures treated with and without denatured type II collagen [1]: no significant difference
COL2-3/4C content in medium and cartilage [2]: no effect
Substance: denatured type II collagen: denatured type II collagen purified from fetal bovine epiphyseal cartilage
GAG-release into culture media [3]: no effect
proteoglycan (GAG) contents [3]: no effect
